Results reported in PMC8776094, “Reactive Oxygen Species Production Is Responsible for Antineoplastic Activity of Osmium, Ruthenium, Iridium and Rhodium Half-Sandwich Type Complexes with Bidentate Glycosyl Heterocyclic Ligands in Various Cancer Cell Models” (International Journal of Molecular Sciences, 2022).

Key:
[1] = system: Capan2, a pancreatic adenocarcinoma cell line; test: SRB assay, 48 h, cytostasis, Capan2; type: cell-based; details: for IC50 / Capan2 Max. Inh. (%): SRB assay; for Capan2 Max. Inh. (%): ND = not detected
From the text: We turned next to assessing whether the cytostatic activity of Os-3, Os-4, Os-5, Os-6 and Ir-6 complexes is specific for ovarian cancer cell lines or if they may be active on other cell lines. To that end, we tested the complexes on another carcinoma cell line (Capan2, a pancreatic adenocarcinoma cell line), on a sarcoma cell line (Saos, an osteosarcoma cell line) and on a lymphoma cell line (L428, a Hodgkin’s lymphoma cell line).
Capan2 cells were maintained in MEM, 10% fetal bovine serum, 1% penicillin/streptomycin, and 2 mM glutamine.
The assay was performed similarly to the method used in [73]. Cells were seeded in 96-well plates the day before the assay. Cells were treated with the compounds for 48 h, with the exception of L428, where 96 h of treatment was applied. Cells were fixed with 10% trichloroacetic acid (TCA). Fixed cells were washed in distilled water 3 times, followed by staining with SRB (0.4 m/V% dissolved in 1% acetic acid) for 10 min. The stained cells were washed in 1% acetic acid 5 times; the acetic acid was removed, and the cells were left to dry. Protein-bound SRB was released by adding 100 µL 10 mM Tris base. Plates were measured in a plate photometer (Thermo Scientific Multiscan GO spectrophotometer, Waltham, MA, USA) at 540 nm. On each plate, wells were designed to contain untreated cells. In calculations, the readings for these wells were considered as 1 and all readings were expressed relative to these values.
Statistical analysis was performed using the 8.0.1 version of Graphpad Prism. Values were tested for normal distribution, using the d’Agostino and Pearson normality test. When necessary, values were log-normalized or were normalized using the Box-Cox normalization method or using a two-step transformation, as indicated in the figure captions. Nonlinear regression was performed using the built-in “[Inhibitor] vs. Response—Variable slope (four parameters), least-square fit” utility of Graphpad, yielding the IC50 and Hill slope values.
Here, 1.5 × 10^3 Capan2, 3 × 10^3 Saos cells and 10^4 L428 cells were plated onto 96-well plates. Capan2 and Saos cells were treated with the compounds in the concentrations indicated for 48 h for an SRB assay. L428 cells were treated with the compounds in the concentrations indicated for 96 h, then cells were counted using conventional microscopy and a Burker chamber. Data are represented as average ± SD, from three biological replicates; individual assays were performed in duplicate. Values were normalized for vehicle-treated cells; the absorbance for vehicle-treated cells is equal to 1. A one-way ANOVA, followed by a Kruskal–Wallis test, was performed individually for each compound. The results of the statistical analysis are presented in an Excel spreadsheet at https://figshare.com/s/28d14597d5041f08eb08 (accessed on 6 January 2022). Nonlinear regression was performed on the data.

[2] = system: A2780 cells; test: Annexin V-propidium iodide double staining, cell death, flow cytometry; type: cell-based; details: 2 h treatment; Os-3 2.68 µM, Os-4 3.25 µM, Os-5 2.84 µM, Os-6 0.70 µM, Ir-6 1.63 µM
Procedure: We selected the Os-3, Os-4, Os-5, Os-6 and Ir-6 complexes for further study, based on their strong cytostatic activity on the ovarian cancer cell lines, but there was a lack of activity on primary fibroblasts. […] Similar to previous approaches, as propidium iodide or Annexin V positivity is an early feature of cell death, we treated cells for 2 h and then performed double-staining with Annexin V—propidium iodide.
The proportion of dead cells was assessed using the Annexin V–propidium iodide assay and was measured using flow cytometry with a BD FacsCalibur (BD Biosciences, Franklin Lakes, NJ, USA) instrument and the FITC Annexin V/Dead Cell Apoptosis kit (Life Technologies, Eugene, OR, USA), according to the manufacturer’s instructions, in a process similar to that in [43]. Quadrants were set, based on the FITC and PI values observed for the vehicle-treated cells.
Here, 1 × 10^6 A2780 cells were plated in 6-well plates and were treated with the corresponding complexes (Os-3 at 2.68 µM, Os-4 at 3.25 µM, Os-5 at 2.84 µM, Os-6 at 0.70 µM, Ir-6 at 1.63 µM,) and 300 µM hydrogen peroxide for 2 h. Cells were then stained with Annexin V and propidium iodide (PI), then, cells were subjected to flow cytometry as described in the Materials and Methods section. The percentage of cells in the quadrants was plotted. Data are represented as average ± SD, from three biological replicates; individual assays were performed in duplicate. Normality was tested, on all datasets. A two-step transformation was used to achieve normal distribution. Statistical significance was determined using a two-way ANOVA test; all measurement points were compared with each other. ** and *** indicate statistically significant differences between vehicle-treated (control) and treated cells ([…] or 300 µM H2O2) corresponding to the same quadrant (e.g., vehicle-treated double-negative cells vs. Os-3-treated double-negative cells) at p < 0.01 and p < 0.001, respectively.

SMILES	cytostatic activity on Capan2 cells (in words) [1]	IC50 [1] [µM]	Capan2 Max. Inh. (%) [1] [%]	induction of cell death (Annexin V / propidium iodide positivity) [2]
Cc1c(C)c(C)[c-](C)c1C.F[P-](F)(F)(F)(F)F.O=C(OCC1OC(n2cc(-c3ccccn3)nn2)C(OC(=O)c2ccccc2)C(OC(=O)c2ccccc2)C1OC(=O)c1ccccc1)c1ccccc1.[Cl][Ir+2] (mixture of isomers) [Ir-6]	active on all cell lines	4.15	100	None of the complexes induced cell death
Cc1ccc(C(C)C)cc1.F[P-](F)(F)(F)(F)F.O=C(OCC1OC(c2nnc(-c3ccccn3)o2)C(OC(=O)c2ccccc2)C(OC(=O)c2ccccc2)C1OC(=O)c1ccccc1)c1ccccc1.[Cl][Os+] (mixture of isomers) [Os-3]	active on all cell lines	8.8	100	None of the complexes induced cell death
Cc1ccc(C(C)C)cc1.F[P-](F)(F)(F)(F)F.O=C(OCC1OC(c2nnc(-c3ccccn3)o2)C(OC(=O)c2ccccc2)C(OC(=O)c2ccccc2)C1OC(=O)c1ccccc1)c1ccccc1.[Cl][Os+] (mixture of isomers) [Os-4]	active on all cell lines	6.2	100	None of the complexes induced cell death
Cc1ccc(C(C)C)cc1.F[P-](F)(F)(F)(F)F.O=C(OC1COC(c2nnc(-c3ccccn3)o2)C(OC(=O)c2ccccc2)C1OC(=O)c1ccccc1)c1ccccc1.[Cl][Os+] (mixture of isomers) [Os-5]	active on all cell lines	8.89	100	None of the complexes induced cell death
Cc1ccc(C(C)C)cc1.F[P-](F)(F)(F)(F)F.O=C(OCC1OC(n2cc(-c3ccccn3)nn2)C(OC(=O)c2ccccc2)C(OC(=O)c2ccccc2)C1OC(=O)c1ccccc1)c1ccccc1.[Cl][Os+] (mixture of isomers) [Os-6]	active on all cell lines	1.71	100	None of the complexes induced cell death
